Source: patent US10351847B2, “Identification and display of peptide ligands” (OXFORD UNIVERSITY INNOVATION LIMITED, priority 2013, dated 2019)
Entries after “also recorded” stand apart in the source; their conditions may differ. Where two headings read alike, the source gives them in different places. Ends that are not written are not given here. GS linker = not defined here

Experiments:
[1] = test system: HIV-1 JRFL gp120; test: ELISA for binding between predicted peptides and gp120; details: compared to negative control HA2 (hemagglutinin-binding peptide)
[2] = test system: HIV-1 (HIV BAL, IIIB, clade C)
[3] = test system: gp120
Procedure: ELISA plate (Greiner, 655061) was coated with 1 μg/ml purified gp120 in PBS and incubated at 4° C. overnight. The plate was washed with ELISA wash buffer (PBS, 0.05% Tween20, VWR) followed by 100 μl blocking buffer (PBS, 0.05% Tween20, 2% BSA powder, Sigma) for 1 hr at room temperature. For antibody blocking experiment, V3/VRC01/F105 antibodies (NIBSC, CFAR3219/3291/3115) were used in 1 μg/ml for 1 hr at room temperature. After blocking, the plates were washed and peptides were added at different concentrations and incubate for 1 hr at room temperature. After washes, the detection of the binding was done by the addition of streptavidin conjugated peroxidase (Sigma, at 1:2500 dilution in PBS for 1 hr at room temperature and developed by TMB substrate (Thermo, 8008743723). After colour change was observed, stop buffer (0.16 M sulphuric acid, Sigma) was added to stop the reaction, and the absorbance was read at OD450 with ELISA plate reader.

[4] = test system: purified gp120; test: Surface plasmon resonance (BIAcore) KD of peptides to gp120; format: binding, HIV-1
Procedure: Immobilisation of purified gp120 protein (1 mg/ml) and purified HLA-A2 heavy chain (reference control, 1 mg/ml) onto the surface of individual flow-cells (Fc1 and Fc2 respectively) of CM5 sensor chip (GE Healthcare) was performed under conditions of 20 μl/min flow rate and 25° C., with HBS-EP buffer (0.01 M HEPES pH 7.4, 0.15 M NaCl, 0.005% v/v Surfactant P20; GE Healthcare) as the running buffer. After initiating the system, 100 μl 0.05M solution of EDC [1-ethyl-3-(3-dimethylaminopropyl) carbodiimide]/NHS (N-Hydroxysuccinimide) at 1:1 ratio was injected to activate the dextran matrix of the sensor chip surface. After immobilisation, 150 μl of 1M ethanolamine hydrochloride was injected to deactivate the unreacted carboxylmethyl groups on the dextran matrix. Finally, 30 μl of Glycine pH2.5 was injected to remove any non-covalently bound proteins.
The affinity analyses of the interaction between 9-amino-acid predicted peptides and purified gp120 were performed using the BIAcore T200 (GE Healthcare), under conditions of 10 μl/min flow rate and 25° C. and using HBS-EP buffer (0.01 M HEPES pH 7.4, 0.15 M NaCl, 0.005% v/v Surfactant P20; GE Healthcare) as the running buffer. Prior to experiment, the 9-amino-acid peptides were diluted to 1 mg/ml with HBS-EP buffer. A 2-fold serial dilution of totally 8 concentrations was used to pass through the […]. The data were analysed using Microcal Origin version 7.5 (Microcal Software Limited).
In order to obtain quantitative measurements of binding reactions between predicted peptides and gp120, surface plasmon resonance (BIAcore) was used to measure the equilibrium dissociation constant KD of the predicted peptides and gp120. […] Since the KD to gp120 is relative to different analytes, purified protein HLA-A*0201 heavy chain was used as a reference control to measure the relative binding affinity of peptides to gp120. Purified gp120 and HLA-A*0201 were immobilised on chips, and the peptides were passed through both flow cells at a constant rate of 10 μl/min. […] The BIcore experiment acted as a second confirmation that the randomised peptide library had successfully captured peptides which bind to gp120 in a single round of selection, and that the sequence information coding the binding peptides was correctly preserved and sequenced.

[5] = test system: HIV-1 BaL; test: HIV-1 inhibition assay (intracellular p24 in CD4+ cells of PBMC); details: for inhibition of HIV-1 BaL infection: without streptavidin conjugation
[6] = test system: JRFL gp120 / recombinant CCR5; format: binding, HIV-1; details: 125 ng peptide
[7] = test system: HIV-1 IIIB; test: HIV-1 inhibition assay (intracellular p24 in CD4+ cells of PBMC); format: cell-based; details: CXCR4 tropic virus

| Compound | binding to gp120 on ELISA (absorbance) [1] | HIV-1 inhibition (in words) [2] | cross clade HIV-1 inhibitory activity [2] | affinity to gp120 (ranking) [4] | other results |
| --- | --- | --- | --- | --- | --- |
| CC(C)C[C@H](NC(=O)[C@H](CC(C)C)NC(=O)[C@H](CC(N)=O)NC(=O)[C@H](CC(C)C)NC(=O)[C@H](CCCNC(=N)N)NC(=O)[C@H](CCCNC(=N)N)NC(=O)[C@H](CS)NC(=O)[C@H](Cc1c[nH]c2ccccc12)NC(=O)[C@@H](N)CC(C)C)C(=O)NCC(=O)NCC(=O)NCC(=O)NCC(=O)NCC(=O)NCC(=O)N[C@@H](CO)C(=O)NCC(=O)NCC(=O)N[C@@H](CO)C(=O)NCC(=O)N[C@@H](CCCCNC(=O)CCCC[C@@H]1SC[C@@H]2NC(=O)N[C@@H]21)C(=O)O [GP16] | significantly higher binding; also recorded: higher absorbance; also recorded: highest binding affinity | greatest inhibition | exhibited cross clade HIV-1 inhibitory activity | highest affinity | reduction in absorbance of peptide binding to gp120 ([3]; gp120 blocked with any of the three antibodies (V3, VRC01, F105)): no reduction; inhibition of HIV-1 BaL infection ([5]; 50 μM): less than 1%; inhibition of HIV-1 BaL infection ([5]; 100 μM): less than 1%; inhibition of HIV-1 BaL infection ([5]; 250 μM): 50% |
| LLALSAYMV [GP11] | significantly higher binding; also recorded: higher absorbance | – | exhibited cross clade HIV-1 inhibitory activity | highest affinity | – |
| LVLLSSASS [GP5] | – | – | – | highest affinity | – |
| RRRNVPLIL (RRRNVPLIL-{GS linker-K(biotin)}; reading uncertain) [GP2] | significantly higher binding; also recorded: higher absorbance | – | – | – | – |
| SSCSVRSSCRLYYSC [GP21] | did not show any binding | did not show any HIV-1 inhibition | – | – | – |
| SYSFCPRRQ (also: GS linker and biotinylated lysine, end not given here) [GP3] | significantly higher binding; also recorded: higher absorbance | greatest inhibition | exhibited cross clade HIV-1 inhibitory activity | highest affinity | reduction in absorbance (recombinant CCR5 binding to gp120) [6]: 65.8%; reduction in absorbance of peptide binding to gp120 ([3]; gp120 pre-blocked with V3 antibody): significant reduction; inhibition of HIV-1 BaL infection ([5]; 50 μM): no inhibitory effect; inhibition of HIV-1 BaL infection ([5]; 100 μM): 34.5%; inhibition of HIV-1 BaL infection ([5]; 250 μM): 54.7%; inhibition of replication ([5]; CCR5 tropic virus): exhibited inhibition; inhibition of replication [7]: no inhibition |
| enfuvirtide | – | – | – | – | viral inhibition ([2]; positive control, 50 μM): 91.1% |
